Here are results for 24 compounds from patent US20060276464A1, “Diarylsulfone sulfonamides and use thereof” (Wyeth, priority 2005, published 2006).

Data set [1] addresses T1, SFRP-1 (Homo sapiens, UniProt Q8N474).
T1 sequence (Q8N474 32-314): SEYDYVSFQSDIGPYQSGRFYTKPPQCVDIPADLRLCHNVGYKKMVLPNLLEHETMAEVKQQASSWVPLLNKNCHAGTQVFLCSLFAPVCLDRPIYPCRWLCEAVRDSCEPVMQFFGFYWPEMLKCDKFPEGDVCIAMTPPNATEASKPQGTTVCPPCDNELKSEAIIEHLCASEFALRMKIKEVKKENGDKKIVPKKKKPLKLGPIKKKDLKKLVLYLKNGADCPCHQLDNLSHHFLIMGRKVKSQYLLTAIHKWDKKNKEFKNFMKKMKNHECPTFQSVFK
Briefly: Cell-based assay for in vitro measurement of SFRP-1/SARP2 antagonist activity (U2OS cells co-transfected with 16x TCF-tk-Luciferase reporter, Wnt and hSFRP-1).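 As to all read-outs here: U2OS cells co-transfected with a TCF-tk luciferase reporter, a Wnt vector, hSFRP-1 or empty vector and CMV-βgal, luciferase luminescence read in cell lysates alongside βgal activity.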 Conditions: for fold induction at 10 µM: U2OS, read-out: Fold Induction with SFRP-1, U2OS cells, single dose 10 μM, luciferase reporter, fold induction over SFRP-1 control.

Data set [2] concerns the target T1, SFRP-1. Briefly: Fluorescence polarization binding assay (competitive displacement of a probe compound from SFRP-1).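 Also: test compound competes with a fluorescent probe held by SFRP-1, seen as a drop in probe anisotropy after incubation in darkness, with anisotropy as function of rising compound dose.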 The note with it: fluorescence anisotropy, 45 nM SFRP-1, 20 nM probe.

`COc1ccc(NC(=O)N(C)CCNS(=O)(=O)c2cc(S(=O)(=O)c3ccccc3)ccc2C(F)(F)F)cc1` [Example 830, N-{2-[{[(4-methoxyphenyl)amino]carbonyl}(methyl)amino]ethyl}-5-(phenylsulfonyl)-2-(trifluoromethyl)benzenesulfonamide]: at SFRP-1 [1], the EC50 came out at 1870 nM and the fold induction at 10 µM stood at 3.3. Further, the IC50 on SFRP-1 [2] was determined as 600 nM.
In the same order, the values of `CCCCNC(=O)N(C)CCNS(=O)(=O)c1cc(S(=O)(=O)c2ccccc2)ccc1C(F)(F)F` [Example 831, N-(2-[[(butylamino)carbonyl](methyl)amino]ethyl}-5-(phenylsulfonyl)-2-(trifluoromethyl)benzenesulfonamide] are 1460 nM, 3.7 and 260 nM.
Regarding `CN(CCNS(=O)(=O)c1cc(S(=O)(=O)c2ccccc2)ccc1C(F)(F)F)C(=O)Nc1ccc(F)cc1F` [Example 832, N-{2-[{[(2,4-difluorophenyl)amino]carbonyl}(methyl)amino]ethyl}-5-(phenylsulfonyl)-2-(trifluoromethyl)benzenesulfonamide], on SFRP-1 [1], the 50% effective concentration (EC50) is 2190 nM and the fold induction at 10 µM was 3.4. On SFRP-1 [2], the IC50 was 250 nM.
Take `CN(CCNS(=O)(=O)c1cc(S(=O)(=O)c2ccccc2)ccc1C(F)(F)F)C(=O)N1CCCC1` [Example 833, N-methyl-N-[2-({[5-(phenylsulfonyl)-2-(trifluoromethyl)phenyl]sulfonyl}amino)ethyl]pyrrolidine-1-carboxamide]: on SFRP-1 [1], the EC50 amounted to 1260 nM and the fold induction at 10 µM is 3.4. On SFRP-1 [2], this compound yielded a 50% inhibitory concentration (IC50) of 400 nM.
Regarding `CCN(CC)C(=O)N(C)CCNS(=O)(=O)c1cc(S(=O)(=O)c2ccccc2)ccc1C(F)(F)F` [Example 834, N-{2-[[(diethylamino)carbonyl](methyl)amino]ethyl}-5-(phenylsulfonyl)-2-(trifluoromethyl)benzenesulfonamide], on SFRP-1 [1], the EC50 stood at 1490 nM and the fold induction at 10 µM was 3. This compound came in with an IC50 on SFRP-1 [2] of 400 nM.
For `CN(CCNS(=O)(=O)c1cc(S(=O)(=O)c2ccccc2)ccc1C(F)(F)F)C(=O)N1CCOCC1` [Example 835, N-methyl-N-[2-({[5-(phenylsulfonyl)-2-(trifluoromethyl)phenyl]sulfonyl}amino)ethyl]morpholine-4-carboxamide], the fold induction at 10 µM on SFRP-1 [1] came out at 3.3. Besides, on SFRP-1 [2], the IC50 turned out to be 1000 nM.
For the compound `CN(CCNS(=O)(=O)c1cc(S(=O)(=O)c2ccccc2)ccc1C(F)(F)F)C(=O)N(C)c1ccccc1` [Example 836, N-[2-(methyl{[methyl(phenyl)amino]carbonyl}amino)ethyl]-5-(phenylsulfonyl)-2-(trifluoromethyl)benzenesulfonamide], on SFRP-1 [1], the EC50 amounted to 1990 nM and the fold induction at 10 µM is 2.8. In addition, the concentration for half-maximal inhibition (IC50) on SFRP-1 [2] was 210 nM.
In the same order, the values of `CN(CCNS(=O)(=O)c1cc(S(=O)(=O)c2ccccc2)ccc1C(F)(F)F)C(=O)c1ccco1` [Example 837, N-Methyl-N-[2-({[5-(phenylsulfonyl)-2-(trifluoromethyl)phenyl]sulfonyl}amino)ethyl]-2-furamide] are 644 nM, 3.4 and 180 nM.
In the case of `CN(CCNS(=O)(=O)c1cc(S(=O)(=O)c2ccccc2)ccc1C(F)(F)F)C(=O)c1ccc(C(C)(C)C)cc1` [Example 838, 4-tert-Butyl-N-methyl-N-[2-({[5-(phenylsulfonyl)-2-(trifluoromethyl)phenyl]sulfonyl}amino)ethyl]benzamide], the fold induction at 10 µM on SFRP-1 [1] came to 2.5. On SFRP-1 [2], this compound showed an IC50 of 1200 nM.
As for `CN(CCNS(=O)(=O)c1cc(S(=O)(=O)c2ccccc2)ccc1C(F)(F)F)C(=O)c1ccccc1OC(F)(F)F` [Example 839, N-Methyl-N-[2-({[5-(phenylsulfonyl)-2-(trifluoromethyl)phenyl]sulfonyl}amino)ethyl]-2-(trifluoromethoxy)benzamide], at SFRP-1 [1], the midpoint of the response, the EC50, lay at 2380 nM and the fold induction at 10 µM was 3.5. Further, the concentration for half-maximal inhibition (IC50) on SFRP-1 [2] stood at 300 nM.
In the case of `O=S(=O)(NC1CCNC1)c1cc(S(=O)(=O)c2ccccc2)ccc1C(F)(F)F` (stereo not shown) [Example 840, 5-(phenylsulfonyl)-N-pyrrolidin-3-yl-2-(trifluoromethyl)benzenesulfonamide], the fold induction at 10 µM at SFRP-1 [1] was found to be 2.9. The compound further gave an IC50 on SFRP-1 [2] of 800 nM.
Consider `Cc1ccc(S(=O)(=O)c2ccc(F)cc2)cc1S(=O)(=O)NC1C[C@@H](C)O[C@@H](C)C1` (stereo partly drawn) [Example 841, N-[(2R*,4S*,6S*)-2,6-dimethyltetrahydro-2H-pyran-4-yl]-5-[(4-fluorophenyl)sulfonyl]-2-methylbenzenesulfonamide], for which the “Fold Induction with SFRP-1” value on SFRP-1 [1] (U2OS cells, single dose 10 μM, luciferase reporter, fold induction over SFRP-1 control) is 1.6. The IC50 on SFRP-1 [2] is 18000 nM.
Regarding `CNc1ccc(S(=O)(=O)c2ccc(C(F)(F)F)c(S(=O)(=O)NC3CCNCC3)c2)cc1` [Example 842, 5-{[4-(methylamino)phenyl]sulfonyl}-N-piperidin-4-yl-2-(trifluoromethyl)benzenesulfonamide], on SFRP-1 [1], the EC50 was 670 nM and the fold induction at 10 µM was determined as 4.2. Also, the IC50 on SFRP-1 [2] was 190 nM.
Taken in the same sequence, the figures for `CN(C)c1ccc(S(=O)(=O)c2ccc(C(F)(F)F)c(S(=O)(=O)NC3CCNCC3)c2)cc1` [Example 843, 5-{[4-(dimethylamino)phenyl]sulfonyl}-N-piperidin-4-yl-2-(trifluoromethyl)benzenesulfonamide] were 2010 nM, 4.7 and 260 nM.
In the same order, the values of `O=S(=O)(NC1CCNCC1)c1cc(S(=O)(=O)c2ccc(NCCO)cc2)ccc1C(F)(F)F` [Example 844, 5-({4-[(2-hydroxyethyl)amino]phenyl}sulfonyl)-N-piperidin-4-yl-2-(trifluoromethyl)benzenesulfonamide] are 500 nM, 4.4 and 160 nM.
Taken in the same sequence, the figures for `O=S(=O)(NCCn1ccnc1)c1cc(S(=O)(=O)c2ccccc2F)ccc1C(F)(F)F` [Example 845, 5-[(2-fluorophenyl)sulfonyl]-N-[2-(1H-imidazol-1-yl)ethyl]-2-(trifluoromethyl)benzenesulfonamide] were 807 nM, 3.8 and 500 nM.
With `CN(CCNS(=O)(=O)c1cc(S(=O)(=O)c2ccccc2)ccc1C(F)(F)F)C(=O)C1CCCCC1` [Example 846, N-methyl-N-[2-({[5-(phenylsulfonyl)-2-(trifluoromethyl)phenyl]sulfonyl}amino)ethyl]cyclohexanecarboxamide], on SFRP-1 [1], the EC50 was found to be 2670 nM and the fold induction at 10 µM was determined as 3.2. For the same compound, the 50% inhibitory concentration (IC50) on SFRP-1 [2] came out at 300 nM.
For `CN(CCNS(=O)(=O)c1cc(S(=O)(=O)c2ccccc2)ccc1C(F)(F)F)C(=O)c1ccc(C(F)(F)F)c(F)c1` [Example 847, 3-Fluoro-N-methyl-N-[2-({[5-(phenylsulfonyl)-2-(trifluoromethyl)phenyl]sulfonyl}amino)ethyl]-4-(trifluoromethyl)benzamide], the fold induction at 10 µM at SFRP-1 [1] amounted to 2.4. Further, the IC50 on SFRP-1 [2] was 2200 nM.
As for `COC(=O)c1ccc(C(=O)N(C)CCNS(=O)(=O)c2cc(S(=O)(=O)c3ccccc3)ccc2C(F)(F)F)cc1` [Example 848, Methyl 4-({methyl[2-({[5-(phenylsulfonyl)-2-(trifluoromethyl)phenyl]sulfonyl}amino)ethyl]amino}carbonyl)benzoate], at SFRP-1 [1], the EC50 turned out to be 1640 nM and the fold induction at 10 µM turned out to be 3.6. The 50% inhibitory concentration (IC50) at SFRP-1 [2] stood at 700 nM.
Taken in the same sequence, the figures for `CN(CCNS(=O)(=O)c1cc(S(=O)(=O)c2ccccc2)ccc1C(F)(F)F)C(=O)c1cccnc1` [Example 849, N-Methyl-N-[2-({[5-(phenylsulfonyl)-2-(trifluoromethyl)phenyl]sulfonyl}amino)ethyl]nicotinamide] were 2100 nM, 3.9 and 700 nM.
For the compound `CN(CCNS(=O)(=O)c1cc(S(=O)(=O)c2ccccc2)ccc1C(F)(F)F)C(=O)c1ccncc1` [Example 850, N-Methyl-N-[2-({[5-(phenylsulfonyl)-2-(trifluoromethyl)phenyl]sulfonyl}amino)ethyl]isonicotinamide], on SFRP-1 [1], the response was half-maximal at 1520 nM (EC50) and the fold induction at 10 µM was determined as 3.5. This compound gave an IC50 at SFRP-1 [2] of 600 nM.
Taken in the same sequence, the figures for `CN(CCNS(=O)(=O)c1cc(S(=O)(=O)c2ccccc2)ccc1C(F)(F)F)C(=O)c1cccnc1Cl` [Example 851, 2-Chloro-N-methyl-N-[2-({[5-(phenylsulfonyl)-2-(trifluoromethyl)phenyl]sulfonyl}amino)ethyl]nicotinamide] were 1510 nM, 3.6 and 400 nM.
Taken in the same sequence, the figures for `CN(CCNS(=O)(=O)c1cc(S(=O)(=O)c2ccccc2)ccc1C(F)(F)F)C(=O)C(C)(C)C` [Example 852, N,2,2-trimethyl-N-[2-({[5-(phenylsulfonyl)-2-(trifluoromethyl)phenyl]sulfonyl}amino)ethyl]propanamide] were 1650 nM, 3.3 and 300 nM.
Regarding `O=C(O)c1cccc(NC(=S)N2CCC(NS(=O)(=O)c3cc(S(=O)(=O)c4ccccc4)ccc3C(F)(F)F)CC2)c1` [Example 855, 3-({[4-({[5-(phenylsulfonyl)-2-(trifluoromethyl)phenyl]sulfonyl}amino)piperidin-1-yl]carbonothioyl}amino)benzoic acid], on SFRP-1 [1], the EC50 is 137 nM and the fold induction at 10 µM was found to be 3.4. The IC50 at SFRP-1 [2] is 40 nM.
